Results reported in PubChem BioAssay AID686920 (Broad Institute, 2013).
The source made the active and inactive calls.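 The calls were made as follows: active = fitted curve reaching 35% inhibition at a dose no higher than twice the top valid tested dose; inconclusive = flat fit with 30 to 70% inhibition, or a poor fit; inactive = the rest, including activity in the opposite direction.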

assay: suppressors of NR0B1-promoter luciferase reporter, dose response, EWS/Fli inhibitor project, luciferase luminescence, A673 cells, cherry-pick (AID 686920); settings: A673 NR0B1-luciferase reporter, viability-normalised luminescence; at 7.5 µM (top of the series)

| Compound | activity change, negative = inhibition |
| --- | --- |
| O=C(CCCCl)Nc1nc(-c2ccc3c(c2)OCCO3)cs1 | 80% (inactive) |

same assay, conditions: A673 NR0B1-luciferase reporter, viability-normalised luminescence; at 68 µM (top of the series)

| Compound | activity change, negative = inhibition |
| --- | --- |
| COc1ccc(C/C(N)=N/OC(C)=O)cc1OC | 13.8% (inactive) |
| COC(=O)C[C@H]1CC[C@@H](NC(=O)Nc2ccc(C(F)(F)F)cc2)[C@H](CO)O1 | 16.7% (inactive) |
| Cc1noc(C)c1NC(=O)Nc1ccc2c(c1)CC(=O)N([C@@H](C)CO)C[C@@H](C)[C@@H](CN(C)Cc1ccc(Cl)c(Cl)c1)O2 | -31.5% (inactive) |
| COc1ccc(OC)c(-c2cc(C(F)(F)F)c3c(n2)sc2c(O)cc(=O)[nH]c23)c1 | 5.23% (inactive) |
| COC(=O)C[C@@H]1CC[C@@H]2[C@H](COc3ccc(NC(=O)c4cccc(Cl)c4)cc3C(=O)N2C)O1 | -6.57% (inactive) |
| CCc1c(C(=O)NN2C(=O)C3CCCCC3C2=O)csc1C (configuration not stated) | 27.7% (inactive) |
| CCCn1nnc(NC(=S)NC(=O)C(C)(C)C)n1 | 37.8% (inactive) |
| COC(=O)C[C@@H]1CC[C@@H]2[C@H](COc3ccc(NC(=O)c4cc(F)cc(F)c4)cc3C(=O)N2C)O1 | -0.173% (inactive) |
| O=C(Cc1nn[nH]n1)c1ccccc1O | 7.17% (inactive) |
| CC(=O)Nc1ccc(OCC(=O)N(CC(C)C)C2CCS(=O)(=O)C2)cc1 (configuration not stated) | 6.28% (inactive) |
| Cc1cc(C(=O)NNC(=O)c2ccc(S(=O)(=O)N(C)C)cc2)c(C)o1 | 5.18% (inactive) |
| Brc1ccc(CSc2nnc(-c3ccco3)o2)cc1 | 86.7% (inactive) |
| Cc1noc(C)c1C(=O)Nc1sccc1C(N)=O | 20.7% (inactive) |
| C/C=C/c1ccc(C2[C@@H]3CN(C(=O)Cc4ccccc4)C[C@H]2N3)cc1 (some centres not stated) | -8.33% (inactive) |
| Cc1ccccc1N=Nc1c(O)n(C)c2ccccc12 | -31.3% (inactive) |
| COC(=O)C[C@H]1CC[C@H]2[C@@H](COc3ccc(NC(=O)Nc4cccc(Cl)c4)cc3C(=O)N2C)O1 | 18.6% (inactive) |
| COc1cc(/C=N/NC(=O)c2csc3c2CCCC3)cc(OC)c1O | 16.3% (inactive) |
| COc1ccccc1-c1cn(CC[C@H]2CC[C@@H](NC(=O)C3CCCC3)[C@@H](CO)O2)nn1 | -4.29% (inactive) |
| CN(C)Cc1c(O)ccc2c1O/C(=C\C=C\c1ccccc1)C2=O | 5.05% (inactive) |
| C/C(=N\N(c1ccccc1)c1ccccc1)c1ccco1 | -1.23% (inactive) |
| Cc1ccc(NC(=O)COC(=O)c2ccc3c(c2)OCO3)cc1S(=O)(=O)N1CCCCC1 | 9.71% (inactive) |
| C[C@H](CO)N1C[C@H](C)[C@H](CN(C)Cc2ccc(C(=O)Nc3ccccc3N)cc2)Oc2ccc(N(C)C)cc2CC1=O | 10.7% (inactive) |
| COC(=O)C[C@H]1CC[C@@H]2[C@H](COc3ccc(NC(=O)Nc4cccc(Cl)c4)cc3C(=O)N2C)O1 | 14.5% (inactive) |
| CC1(CCc2ccccc2)NC(=O)N(CC(=O)N2CC(=O)Nc3ccccc32)C1=O (configuration not stated) | 6.97% (inactive) |
| C/C=C/c1ccc([C@H]2[C@@H](CO)N3C(=O)CN(S(=O)(=O)c4cccc(F)c4)C[C@@H]23)cc1 | -7.12% (inactive) |
| COc1ccc(NC(=S)N=Nc2c(O)[nH]c3ccccc23)cc1 | 29.4% (inactive) |

| Compound | activity change, negative = inhibition |
| --- | --- |
| O=C(CNC(=O)Cc1ccccc1)N=Nc1c(O)n(Cc2ccc3c(c2)OCO3)c2ccccc12 | -28.3% (inactive) |
| CC(=O)c1ccc(N(C(=O)Cn2nnc3ccccc32)C(C(=O)NCc2ccccc2)c2ccccn2)cc1 (configuration not stated) | 102% (inactive) |
| Oc1c(Cl)cc(Cl)c2cccnc12 | -29.3% (inactive) |
| Nc1ncn([C@@H]2O[C@H](CO)[C@@H](O)[C@H]2O)c(=O)n1 | -32.1% (inactive) |
| COc1ccc(-c2cn(-c3ccc(OC)cc3)c3[n+]2-c2ccccc2CC3)cc1 | -21.1% (inactive) |
| COC(=O)C[C@H]1C=C[C@@H](NC(=O)Nc2ccc(C(F)(F)F)cc2)[C@H](CO)O1 | 8.17% (inactive) |
| COC(=O)C[C@@H]1CC[C@@H]2[C@H](COc3ccc(NC(=O)c4ccc(F)cc4)cc3C(=O)N2C)O1 | -47% (inactive) |
| CCn1c(/C=N/NC(=O)c2ccc(OC)cc2)nc2ccccc21 | 30.3% (inactive) |
| CCCCOc1ccc(NC(=O)C(=O)NCCCn2ccnc2)cc1 | -0.492% (inactive) |
| Cc1c(N=Cc2cc(Br)cc(Br)c2O)cccc1C(=O)O | 14.9% (inactive) |
| CN(C)C(=S)N=Nc1[nH]c2ccccc2c1O | 13% (inactive) |
| CCNC(=O)[C@@H]1[C@@H](CO)[C@@H]2Cn3c(ccc(C4=CCCCC4)c3=O)[C@H]1N2CC | -2.58% (inactive) |
| CCCc1nc2ccc(NC(=O)c3cccs3)cc2c(=O)n1Cc1ccccc1Cl | 5.64% (inactive) |
| N/C(Cc1nc(-c2ccc(F)cc2)cs1)=N\O | 42.1% (inactive) |
| C=CCOC(=O)c1sc(NC(=O)c2ccc(OC)cc2)nc1C | 39% (inactive) |
| COc1ccccc1NS(=O)(=O)c1cc(NC(=O)c2cc3ccccc3oc2=O)ccc1C | 53.4% (inactive) |
| COC(=O)C[C@@H]1CC[C@@H]2[C@@H](COc3ccc(NC(=O)Nc4cccc(Cl)c4)cc3C(=O)N2C)O1 | -7.4% (inactive) |
| CC(Oc1cccc(Cl)c1)C(=O)NCCCCc1ccccc1 (configuration not stated) | 4.85% (inactive) |
| CCOc1ccc(NC(=O)C(=O)N/N=C\c2ccc(CNS(=O)(=O)c3ccccc3)o2)cc1 | -7.85% (inactive) |
| COC(=O)C[C@@H]1CC[C@@H]2[C@@H](COc3ccc(NC(=O)Cc4cccs4)cc3C(=O)N2C)O1 | -27.4% (inactive) |
| CCOc1cc2[nH]c(=S)n(Cc3ccc(C(=O)N4CCN(C)CC4)cc3)c(=O)c2cc1OCC | 20% (inactive) |
| Nc1nc(N)c2c(ccc3nccc32)[nH]1 | 55.3% (inactive) |
| COc1cccc(S(=O)(=O)N(C)C[C@H]2OCc3cnnn3CCCC(=O)N([C@@H](C)CO)C[C@H]2C)c1 | -19.9% (inactive) |
| O=C(Nc1cccc(Oc2ccc3c(c2)C(=O)NC3=O)c1)c1cccs1 | -4.58% (inactive) |
| S=C(NCCN1CCOCC1)Nc1ccccc1Cl | 15.5% (inactive) |
